# Assay results taken from patent US20250213558A1, “T-TYPE CALCIUM CHANNEL MODULATORS COMPRISING A PIPERAZINE OR 1,4-DIAZEPANE CORE AND METHODS OF USE THEREOF” (Praxis Precision Medicines, Inc., priority 2022, published 2025).
# Where two headings read alike, the source gives them in different places.
# Molecular target: T1, Human Cav3.1 calcium channel (Homo sapiens, UniProt O43497)
# T1 construct: expressed in transfected cells; host or cells: HEK-293 natClytin/TASK1+Cav3.1 cell line
# Test: Human Cav3.1 calcium channel patch clamp assay (SyncroPatch 384PE; single point and IC50, voltage dependent block)
# Assay type: cell-based
# Conditions: for % Inhibition (Single Point Data): patch clamp
# Procedure: Certain compounds (as indicated) were tested for Human Cav3.1 calcium channel activity via a patch clamp assay as disclosed herein.
# Pulse generation and data collection were performed with PatchController384 V1.3.0 and DataController384 V1.2.1 (Nanion Technologies). Offline analysis was performed using Excel and Graphpad Prism (V 8.4.2) with complete data files uploaded to Dotmatics. The access resistance and apparent membrane capacitance were estimated using built-in protocols. Current was recorded in whole cell configuration from a population of cells. The cells were lifted, triturated, and resuspended at 800,000 cells/ml. The cells were allowed to recover in the cell hotel prior to experimentation. Currents were recorded at room temperature. The external solution contained the following (in mM): NaCl 80, NMDG 60, KCl 4, MgCl2 1, CaCl2 6, glucose 5 and HEPES 10 (pH=7.4, Osmolarity˜300 mOsm). The extracellular solution was used as the wash, reference and compound delivery solution.
# The compound plate was created at 2× concentrated in the extracellular solution. The compound was diluted to 1:2 when added to the recording well. The amount of DMSO in the extracellular solution was held constant at the level used for the highest tested concentration. For the voltage clamp experiments on Cav3.1, data were sampled at 10 KHz. After establishment of the seal and the passage in the whole cell configuration, the cells were held at −120 mV. Cav3.1 current was evoked using a 100 ms step to −20 mV (to measure resting state block), followed by a 1600 ms step to −65 mV and a second 100 ms step to −20 mV (to measure voltage dependent block). The voltage protocol was applied every 15 seconds in the absence and in the presence of the compounds under investigation. […] Current amplitude (pA) was measured in the peak 1 and 2. The average of last 3 sweeps of each liquid period (vehicle, compound under investigation, full block) was calculated. Nickel-sensitive current was used to calculate the % of inhibition in the presence of the compound under investigation.
# [1] = Testing Conc 1.25, HEK-293 natClytin/TASK1+Cav3.1 cell line
# [2] = voltage dependent block (VDB), HEK-293 natClytin/TASK1+Cav3.1 cell line, read-out: Cav3.1 IC50
# [3] = Testing Conc 1, HEK-293 natClytin/TASK1+Cav3.1 cell line
# T1 sequence (O43497 whole entry): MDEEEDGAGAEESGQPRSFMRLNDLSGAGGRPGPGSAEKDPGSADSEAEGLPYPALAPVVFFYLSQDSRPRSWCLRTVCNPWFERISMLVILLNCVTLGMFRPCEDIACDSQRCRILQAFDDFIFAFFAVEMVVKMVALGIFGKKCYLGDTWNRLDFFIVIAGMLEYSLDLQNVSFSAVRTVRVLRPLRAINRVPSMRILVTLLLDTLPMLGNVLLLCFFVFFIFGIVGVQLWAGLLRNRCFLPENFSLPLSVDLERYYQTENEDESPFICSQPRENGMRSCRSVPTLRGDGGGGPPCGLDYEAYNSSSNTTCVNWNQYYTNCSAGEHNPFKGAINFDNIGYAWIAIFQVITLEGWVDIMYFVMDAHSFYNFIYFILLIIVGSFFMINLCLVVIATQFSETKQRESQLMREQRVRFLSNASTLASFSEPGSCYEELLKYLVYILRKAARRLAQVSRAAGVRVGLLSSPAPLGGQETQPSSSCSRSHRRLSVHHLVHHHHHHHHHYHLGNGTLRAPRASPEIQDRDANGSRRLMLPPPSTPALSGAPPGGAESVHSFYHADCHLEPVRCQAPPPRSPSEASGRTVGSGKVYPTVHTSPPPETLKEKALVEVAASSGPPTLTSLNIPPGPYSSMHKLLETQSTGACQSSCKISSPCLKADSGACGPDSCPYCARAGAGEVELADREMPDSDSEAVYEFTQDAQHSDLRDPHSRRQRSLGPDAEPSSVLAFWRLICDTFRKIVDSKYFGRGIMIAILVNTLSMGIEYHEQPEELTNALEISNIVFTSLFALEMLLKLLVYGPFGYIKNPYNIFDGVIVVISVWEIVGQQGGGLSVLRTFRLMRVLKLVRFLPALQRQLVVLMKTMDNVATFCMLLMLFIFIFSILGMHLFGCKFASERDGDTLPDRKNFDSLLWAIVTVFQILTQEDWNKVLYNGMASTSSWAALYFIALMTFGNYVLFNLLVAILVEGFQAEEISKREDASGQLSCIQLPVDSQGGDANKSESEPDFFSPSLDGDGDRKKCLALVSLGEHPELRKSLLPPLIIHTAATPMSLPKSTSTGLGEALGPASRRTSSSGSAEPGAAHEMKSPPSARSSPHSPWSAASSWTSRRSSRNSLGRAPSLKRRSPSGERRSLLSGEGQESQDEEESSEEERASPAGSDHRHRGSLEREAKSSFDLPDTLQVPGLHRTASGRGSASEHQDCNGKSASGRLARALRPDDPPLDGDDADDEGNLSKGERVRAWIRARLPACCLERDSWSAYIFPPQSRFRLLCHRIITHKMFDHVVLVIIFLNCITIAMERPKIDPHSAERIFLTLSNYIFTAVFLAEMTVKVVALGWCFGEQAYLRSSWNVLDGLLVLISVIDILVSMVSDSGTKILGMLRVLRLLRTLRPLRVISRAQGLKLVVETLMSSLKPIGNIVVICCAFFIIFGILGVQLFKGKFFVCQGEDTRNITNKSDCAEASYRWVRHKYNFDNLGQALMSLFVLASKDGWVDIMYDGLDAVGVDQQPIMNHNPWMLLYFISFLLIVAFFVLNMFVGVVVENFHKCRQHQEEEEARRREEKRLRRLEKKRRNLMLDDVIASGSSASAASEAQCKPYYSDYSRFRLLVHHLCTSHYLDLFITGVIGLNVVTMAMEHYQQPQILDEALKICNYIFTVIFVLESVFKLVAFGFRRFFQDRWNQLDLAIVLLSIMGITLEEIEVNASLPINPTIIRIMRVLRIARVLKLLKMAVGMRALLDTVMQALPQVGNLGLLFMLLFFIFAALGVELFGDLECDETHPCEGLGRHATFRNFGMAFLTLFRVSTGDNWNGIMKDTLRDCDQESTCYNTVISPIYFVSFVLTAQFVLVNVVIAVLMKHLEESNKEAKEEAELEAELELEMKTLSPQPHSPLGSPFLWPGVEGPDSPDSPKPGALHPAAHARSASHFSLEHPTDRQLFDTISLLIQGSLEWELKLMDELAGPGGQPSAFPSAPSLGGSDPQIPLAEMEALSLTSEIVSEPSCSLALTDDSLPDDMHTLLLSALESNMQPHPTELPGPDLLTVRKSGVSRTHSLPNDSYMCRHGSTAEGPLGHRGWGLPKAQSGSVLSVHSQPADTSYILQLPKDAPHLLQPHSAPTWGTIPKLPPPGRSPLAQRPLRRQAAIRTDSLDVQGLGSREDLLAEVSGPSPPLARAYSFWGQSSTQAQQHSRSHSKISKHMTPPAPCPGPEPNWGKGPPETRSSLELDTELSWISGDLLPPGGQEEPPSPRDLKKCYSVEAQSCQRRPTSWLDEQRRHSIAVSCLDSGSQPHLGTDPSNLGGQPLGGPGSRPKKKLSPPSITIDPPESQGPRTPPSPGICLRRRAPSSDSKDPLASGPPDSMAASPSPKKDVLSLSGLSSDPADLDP
SMILES,% Inhibition (Single Point Data) [1],IC50 [2],IC50,% Inhibition (Single Point Data) [3]
O=C1CCCCN1CCN1C2CC1CN(Cc1nc3c(Cl)cc(F)cc3[nH]1)C2 [Compound 120],81.802%,–,–,–
CC(C)(C)NC(=O)CN1C2CCC1CN(Cc1nc3cc(F)cc(Cl)c3o1)C2 [Compound 193],23.525%,2200 nM,–,–
CC(C)(C)NC(=O)CN1CC2CC1CN2CC(=O)Nc1cccc(Cl)c1 (stereo not drawn) [Compound 131],83.36%,2380 nM,–,–
COc1cc(NC(=O)CN2CC3CC(C2)N3CC(=O)NC(C)(C)C)cc(F)c1F [Compound 353],–,97 nM,–,–
CC(C)(C)NC(=O)CN1C[C@@H]2C[C@H]1CN2C(=O)NC12CC3CC(CC(C3)C1)C2 [Compound 304],25.21%,4770 nM,–,–
Cc1cc(F)cc(NC(=O)CN2CC3CC(C2)N3CC(=O)NC2(C(F)(F)F)CC2)c1 [Compound 335],84.646%,338 nM,–,–
O=C(CN1CC2CC(C1)N2CC(=O)NC1(C(F)(F)F)CC1)Nc1cc(F)c(F)c(Cl)c1 [Compound 349],–,< 78.2 nM,–,–
CC(C)(C)NC(=O)CN1C2CC1CN(CC(=O)Nc1cc(F)ccc1C#N)C2 [Compound 219],35.823%,–,–,–
CC(C)(C)NC(=O)CN1C[C@H]2C[C@@H]1CN2CC(=O)NC12CC3CC(CC(C3)C1)C2 [Compound 261],70.332%,518 nM,–,–
CC(C)(NC(=O)CN1CCN(CC(=O)Nc2cc(F)cc(OC(F)F)c2)CC1)C(F)(F)F [Compound 53],57.147%,1010 nM,–,–
CC(C)(C)NC(=O)CN1C2CC1CN(CC(=O)NC13CCC(CC1)C3)C2 [Compound 308],33.02%,1930 nM,–,–
CC(C)Cc1cc(CNC(=O)CN2CC3CC(C2)N3CC(=O)NC(C)(C)C)nn1-c1ccccc1 [Compound 301],19.445%,3240 nM,–,–
CC(C)(NC(=O)CN1C[C@@H]2C[C@H]1CN2CC(=O)Nc1ccc(F)c(Cl)c1)C(F)(F)F [Compound 24],92.08%,185 nM,–,–
CC(C)(C)NC(=O)CN1C[C@H]2CC[C@@H]1CN2CC(=O)Nc1ccc(F)c(OC(F)F)c1 [Compound 266],61.569%,803 nM,–,–
CC(C)(C)NC(=O)CN1C2CC1CN(CC(=O)NC1CCCCC1)C2 [Compound 309],22.713%,–,–,–
Cc1ccc(C#N)c2nc(CN3CC4CC(C3)N4CC(=O)NC(C)(C)C)[nH]c12 [Compound 177],87.595%,–,–,–
CC(C)(C)NC(=O)CN1CC2COCC(C1)N2Cc1nc2c(Cl)cc(F)cc2[nH]1 [Compound 153],82.059%,386 nM,–,–
O=C(NCCN1C2CC1CN(Cc1nc3c(Cl)cc(F)cc3[nH]1)C2)C1(C(F)(F)F)CCC1 [Compound 138],98.457%,–,–,–
CC(C)(C)NC(=O)CN1C2CCC1CN(Cc1nc(-c3ccccc3)c[nH]1)C2 [Compound 196],83.677%,–,–,–
COc1cc(Cl)cc(NC(=O)CN2CC3CC(C2)N3CC(=O)NC2(C(F)(F)F)CC2)c1 [Compound 334],79.86%,–,–,–
"CC(C)Cc1cc(CNC(=O)CN2CCN(CC(=O)NC(C)(C)C)CC2)nn1-c1ccccc1 [Compound 1, 2-[4-[2-(tert-butylamino)-2-oxo-ethyl]piperazin-1-yl]-N-[(5-isobutyl-1-phenyl-pyrazol-3-yl)methyl]acetamide]",27.978%,2240 nM,–,–
Fc1cc(Cl)c2nc(CN3CC4CC(C3)N4CC3CCOCC3)[nH]c2c1 [Compound 117],40.989%,1360 nM,–,–
Fc1cc(Cl)c2nc(CN3CCN(CCC4CCCC4)CC3)[nH]c2c1 [Compound 71],94.005%,–,–,–
CC(C)(C)NC(=O)CN1C2CCC1CN(Cc1nc3c(Cl)cccc3[nH]1)C2 [Compound 189],92.283%,–,< 78.2 nM,–
COc1ccc(F)cc1NC(=O)CN1CC2CC(C1)N2CC(=O)NC(C)(C)C [Compound 218],36.544%,2890 nM,–,–
CC(C)(C)NC(=O)CN1C2CCC1CN(CC(=O)NCc1cc3ccccc3o1)C2 [Compound 5],22.469%,–,–,–
COc1cc(Cl)cc(NC(=O)CN2C[C@@H]3C[C@H]2CN3CC(=O)NC2(C(F)(F)F)CC2)c1 [Compound 339],87.995%,249 nM,–,–

SMILES,% Inhibition (Single Point Data) [1],IC50 [2],IC50,% Inhibition (Single Point Data) [3]
C[C@H](c1nc2c(Cl)cc(F)cc2[nH]1)N1CC2CCC(C1)N2CC(=O)NC(C)(C)C [Compound 118],102.64%,–,–,–
CC(C(=O)Nc1ccc(F)c(OC(F)F)c1)N1CC2CC(C1)N2CC(=O)NC(C)(C)C (stereo not drawn) [Compound 256],100.73%,–,–,–
Cc1ccc(F)c2[nH]c(CN3CC4CC(C3)N4CC(=O)NC(C)(C)C)nc12 [Compound 207],97.657%,121 nM,–,–
Cc1cc(Cl)cc(NC(=O)CN2CC3CC(C2)N3CC(=O)NC(C)(C)C)c1 [Compound 305],101.69%,199 nM,–,–
O=C(CN1C2CCC1CN(Cc1nc3c(Cl)cc(F)cc3[nH]1)C2)N1CCCCC1 [Compound 78],97.937%,–,–,–
Cn1nc(C(C)(C)C)cc1NC(=O)CN1CC2CCC(C1)N2CC(=O)NC(C)(C)C [Compound 6],10.343%,–,–,–
O=C(CN1CC2CC(C1)N2CC(=O)NC1(C(F)(F)F)CC1)Nc1ccc(F)c(OC(F)F)c1 [Compound 245],96.987%,–,97.8 nM,–
CC(C)(C)NC(=O)CN1CCN(CC(=O)Nc2cc(F)cc(Cl)c2)C(=O)C1 [Compound 35],–,–,–,42.822%
O=C(CN1CC2CC1CN2CCNC(=O)C1(C(F)(F)F)CC1)Nc1ccc(F)c(Cl)c1 (stereo not drawn) [Compound 18],83.021%,337 nM,–,–
CC1(S(=O)(=O)NCCN2C3CC2CN(Cc2nc4c(Cl)cc(F)cc4[nH]2)C3)CC1 [Compound 142],84.115%,223 nM,–,–
CC(C)(C)NC(=O)CN1C2CC1CN(CC(=O)Nc1cccc(OC(F)F)c1)C2 [Compound 12],81.341%,–,–,–
CC1(C)CN(C(=O)CN2C[C@@H]3C[C@H]2CN3CC(=O)NC23CC4CC(CC(C4)C2)C3)C1 [Compound 317],48.399%,1080 nM,–,–
CC1(NC(=O)CN2C3CC2CN(CC(=O)Nc2ccc(F)c(Cl)c2)C3)CC1 [Compound 239],58.273%,587 nM,–,–
CC(C)(C)NC(=O)CN1CCCN(CC(=O)NC23CC4CC(CC(C4)C2)C3)CC1 [Compound 32],–,–,–,56.921%
O=C(CN1CC2CC(C1)N2CC(=O)NC1(C(F)(F)F)CC1)NC12CC3CC(CC(C3)C1)C2 [Compound 281],54.316%,900 nM,–,–
O=C(CN1CC2CC(C1)N2CCNC(=O)C1(C(F)(F)F)CCC1)Nc1ccc(F)c(Cl)c1 [Compound 17],99.317%,–,< 78.2 nM,–
CC(C)(C)NC(=O)CN1C[C@H]2C[C@@H]1CN2CC(=O)Nc1ccc(F)c(Cl)c1 [Compound 26],57.68%,827 nM,–,–
Cc1ccnc2[nH]c(CN3CC4CCC(C3)N4CC(=O)NC(C)(C)C)nc12 [Compound 187],46.159%,1000 nM,–,–
CC(C)(NC(=O)CN1C[C@H]2C[C@@H]1CN2CC(=O)Nc1ccc(F)c(Cl)c1)C(F)(F)F [Compound 27],69.274%,457 nM,–,–
CC(C)(NC(=O)CN1C2CC1CN(CC(=O)Nc1ccc(F)c(Cl)c1)C2)C(F)(F)F [Compound 241],101.68%,–,–,–
CC(C)(C)NC(=O)CN1C2CCC1CN(Cc1nc3c(Cl)cc(F)cc3[nH]1)CC2 (stereo not drawn) [Compound 65],82.104%,708 nM,–,–
CC1(NC(=O)CN2C3CC2CN(Cc2nc4c(Cl)ccc(F)c4[nH]2)C3)COC1 [Compound 174],75.268%,–,–,–
C[C@@H](c1nc2c(Cl)cc(F)cc2[nH]1)N1CC2CCC(C1)N2CC(=O)NC(C)(C)C [Compound 119],95.894%,–,–,–
CC(C)(C)NC(=O)CN1C2CCC1CN(Cc1c[nH]c(-c3ccccc3)n1)C2 [Compound 197],45.013%,1540 nM,–,–
COc1cc(NC(=O)CN2C[C@@H]3C[C@H]2CN3CC(=O)NC2(C(F)(F)F)CC2)cc(F)c1F [Compound 351],–,131 nM,–,–
Cc1ccc(F)c2[nH]c(CN3CC4CC(C3)N4CC(=O)NC(C)(C)C(F)(F)F)nc12 [Compound 144],98.286%,–,74.5 nM,–
